# Data: US20260216182A1, “PYRIDAZINE NLRP3 INHIBITOR COMPOUND, PHARMACEUTICAL COMPOSITION, AND PREPARATION METHOD THEREFOR AND USE THEREOF” (CHANGCHUN GENESCIENCE PHARMACEUTICAL CO., LTD., priority 2022, published 2026)
# Where two headings read alike, the source gives them in different places. Marks after values point to notes of the source that are not given here.
# Legend:
# SD rats = experiment: 14-day toxicity experiment on rats: safety observations; type: in vivo
# From the text: (§1) Test Example 7 14-Day Toxicity Experiment on Rats
# (§2) SD rats were orally gavaged with compound 062 and the control compound once a day for a total of 14 times. The toxic reactions caused by compound 062 and the control compound were observed and their toxicokinetics were studied.
# An appropriate amount of the test compound was weighed (weighed amount=theoretical required amount/content), and fully ground and dispersed in a mortar (agate or ceramic). Then, an appropriate amount of [5% Solutol HS15 in 95% (0.2% CMC-Na)] was added and the mixture was ground until there were no obvious large particles. Then the mortar was cleaned with [5% Solutol HS15 in 95% (0.2% CMC-Na)] in small amounts several times until there was no drug powder residue observed with the naked eye. The mixture was transferred to a suitable container, well stirred and mixed, and the remaining [5% Solutol HS15 in 95% (0.2% CMC-Na)] was further added to the required volume (streaking method). The system was stirred and mixed for at least 20 min, thereby giving the test sample formulation.
# (§3) Oral gavage. The drug was stirred for at least 30 min prior to administration and continuously stirred throughout the administration. The dosing frequency was once a day for 14 consecutive days, and the dosing amount was 10 mL/kg (the dosing amount was calculated based on the most recent weight).
# Dosing period: All surviving animals in the main test group were observed twice a day, once before and after dosing respectively, and observed in detail at least once a week.
# Observation contents: The main observation contents include (but not limited to) survival status, injection site, skin, hair, eyes, ears, nose, mouth, chest, abdomen, urogenital area, limbs, as well as breathing, movement, urination, defecation, mental or behavioral changes, etc.
# Dosing period: All surviving animals were weighed at least once a week. The body weight of animals in the toxicokinetics (TK) group was only used to calculate the dosage. The body weight data were not statistically analyzed and were only presented as individual data in the summary report.
# Dosing period: The food intake of the surviving animals in the main test group was weighed at least once a week, and the average food intake was expressed in g/animal/day.
# • End of dosing period: once; • Blood sampling route: abdominal aorta; • Animals: Plan to dissect surviving animals; • Blood was collected into tubes containing anticoagulant (EDTA-K2), and hematological indices were detected using a Sysmex XN-1000V fully automatic blood analyzer; blood was collected into anticoagulant tubes containing sodium citrate, and coagulation indices were detected using a Sysmex CS-5100 coagulometer. The specific detection indices are as follows:
# • End of dosing period: once; • Blood sampling route: abdominal aorta; • Animals: Plan to dissect surviving animals; • The animals were fasted overnight, and whole blood was collected into a test tube containing a coagulant and a separation gel. Serum was obtained by centrifugation, and serum biochemical indices were detected using a Hitachi-7180 biochemical analyzer. The specific detection indices are as follows:
# • Dissection time: end of dosing period (D15); • Anesthesia method: The specifications of the anesthetic mixture are ketamine of 37.5 mg/mL and xylazine of 2.5 mg/mL. The euthanasia dose is 2-4 mL/kg of the mixture (the anesthetic dose of the animal planned for dissection is calculated based on the body weight after fasting overnight, the concentration will be recorded in the original record and presented in the summary report, and the dose can be adjusted according to the anesthetic effect) by intraperitoneal injection. […]
# [1] = 14-day toxicity experiment on rats: toxicokinetics; type: in vivo, SD rats; details: for Cmax / AUC(0-t): SD, rat, plasma, po; for AUC(0-t): read-out: AUC(0-24)
# Protocol: as §1, §2, §3
# Different time points before and after administration on D1 and D14.
# Group 2 to Group 7: Before dosing and 0.5 h, 1 h, 2 h, 4 h, 8 h and 24 h after dosing (before dosing on D2 and/or D15).
# Whole blood was collected into a blood collection tube containing EDTA-K2, the tube was immediately and gently inverted upside down several times to mix the system thoroughly, and placed on crushed ice/ice pack. Blood was centrifuged (2000 g, 10 min) at 4° C. (set temperature, allowable temperature range: 2 to 8° C.) within 1 h after blood collection. The collected plasma was divided into two portions into separate labeled EP tubes (one for testing and one for standby testing), and stored in an ultra-low temperature refrigerator (−70° C. to −90° C.) within 2 h after collection. The samples were stored in dry ice during transportation and transfer.
# The drug concentration in plasma was analyzed by using LC-MS/MS, verified blood drug concentration data was provided, and the main toxicokinetic parameters (AUC0-t, Cmax and Tmax) were calculated and compared.
# mouse NASH model = experiment: Mouse NASH model test (HFD + fructose), combination with semaglutide; type: in vivo, mice
# Protocol: Test Example 6 Mouse NASH Model Test
# After the animals arrived and acclimatized for 1 week, they were randomly divided into 2 groups. 48 mice were fed a high-fat diet (HFD) and had free access to 15% fructose water (w/w). After the animals were fed for 20 weeks, they were fasted for 6 h, and fasting blood glucose (FBG) was monitored by a blood glucose meter. Orbital blood was taken from all animals, and serum was collected by centrifugation to detect serum ALT levels. Animals were randomly divided into 6 groups according to their body weight, FBG and ALT levels. After that, the high fat feed (HFD) was replaced with the modified high fat feed (mHFD), and the mice had free access to 15% fructose water (v/w). The 8 mice in the other group were fed normal diet and water.
# The first end point of the experiment: After 8 weeks of administration, the end point body weight was recorded and the animals were fasted for 6 h, and fasting blood glucose was measured with a blood glucose meter. The mice were then euthanized by CO2 and serum was collected by orbital blood sampling and stored at −80° C. for insulin and biochemical analysis. The animal's liver was taken and the liver weight was recorded. The liver was divided into four parts, one part was quick-frozen in liquid nitrogen for biochemical analysis, one part was placed in tissue fixative for pathological analysis, one part was stored in RNAlater for qPCR detection (backup for later use), and one part was quick-frozen in liquid nitrogen for possible subsequent detection.
# The second end point of the experiment: 3 mice were kept in each group for 6 weeks for further observation. The end point body weight was recorded and the mice were fasted for 6 h. Fasting blood glucose was tested with a blood glucose meter. The mice were then euthanized by CO2 and serum was collected by orbital blood sampling and stored at −80° C. for insulin and biochemical analysis. The animal's liver was taken and the liver weight was recorded. The liver was divided into four parts, one part was quick-frozen in liquid nitrogen for biochemical analysis, one part was placed in tissue fixative for pathological analysis, one part was stored in RNAlater for qPCR detection (backup for later use), and one part was quick-frozen in liquid nitrogen for subsequent detection.
# [2] = 30 mg/kg, 30 mpk oral, Day 1, plasma
# [3] = 30 mg/kg, 30 mpk oral, Day 14, plasma
# [4] = 60 mg/kg, 60 mpk oral, Day 1, plasma
# [5] = 60 mg/kg, 60 mpk oral, Day 14, plasma
# [6] = 100 mg/kg, 100 mpk oral, Day 1, plasma
# [7] = 100 mg/kg, 100 mpk oral, Day 14, plasma
smiles,measurement,setting,value
"CC#Cc1ccc2c(-c3ccc(Cl)cc3O)nnc(NC[C@H](O)CO)c2c1 [Compound 062, (S)-3-((4-(4-chloro-2-hydroxyphenyl)-7-(prop-1-yn-1-yl)phthalazin-1-yl)amino) propan-1,2-diol]",safety (conclusion in words),SD rats; 14-day rat study,good safety
same,Death/moribundity,"SD rats; 30, 60, 100 mg/kg/day oral, 14 days",None
same,safety compared with the control compound,SD rats; exposure in high-dose group 4.8 times that of control compound,much better than that of the control compound
same,exposure in the high-dose group relative to the control compound,[1]; 100 mg/kg high-dose group,4.8 times
same,Cmax,[1]; [2],19900 ng/mL
same,AUC(0-t),[1]; [2],279 µg·h/mL
same,Cmax,[1]; [3],31700 ng/mL
same,AUC(0-t),[1]; [3],384 µg·h/mL
same,Cmax,[1]; [4],41100 ng/mL
same,AUC(0-t),[1]; [4],622 µg·h/mL
same,Cmax,[1]; [5],68600 ng/mL
same,AUC(0-t),[1]; [5],1120 µg·h/mL
same,Cmax,[1]; [6],68200 ng/mL
same,AUC(0-t),[1]; [6],1120 µg·h/mL
same,Cmax,[1]; [7],127000 ng/mL
same,AUC(0-t),[1]; [7],2120 µg·h/mL
same,rebound of mouse body weight after drug withdrawal,"mouse NASH model; combination with 0.025 mpk semaglutide, FIG. 5",significantly inhibited the rebound of mouse body weight after drug withdrawal
same,food intake,"mouse NASH model; combination with 0.025 mpk semaglutide, FIG. 6",without affecting food intake
same,"levels of ALT, AST, LDL and HDL after drug withdrawal","mouse NASH model; serum, combination with 0.025 mpk semaglutide, FIG. 7","significantly inhibited the levels of ALT, AST, LDL and HDL after drug withdrawal"
CC(C)(O)CNc1nnc(-c2ccc(Cl)cc2O)c2ccncc12 [Control compound],"animals with swelling of the left and right hind limbs and ears, females",SD rats; 30 mg/kg,2/5
same,"animals with swelling of the left and right hind limbs and ears, males",SD rats; 30 mg/kg,4/5
same,"Gross anatomy, animals with unplanned autopsy (dead animals)",SD rats; 100 mg/kg,showed discoloration of the lungs and/or liver.
same,"weight loss before death vs before dosing, animal 4006#","SD rats; 100 mg/kg, male, TK group, found dead D 6",weight loss (vs before dosing: ↓28.4%)
same,"body weight decrease before death vs before dosing, animal 4101#","SD rats; 100 mg/kg, male, found dead D 4","↓6.25%); before death, animal 4006# showed"
same,body weight reduction vs. control group,"SD rats; D 7, high (100 mg/kg)",22.5%
same,body weight reduction vs. control group,"SD rats; D 7, low (30 mg/kg)",7.7%
same,body weight reduction vs. control group,"SD rats; D 7, medium (60 mg/kg)",16.7%
same,body weight reduction vs. control group,"SD rats; D 14, high (100 mg/kg)",23.3%
same,body weight reduction vs. control group,"SD rats; D 14, low (30 mg/kg)",8.5%
same,body weight reduction vs. control group,"SD rats; D 14, medium (60 mg/kg)",14.6%
same,#NEU increase,"SD rats; females, high (100 mg/kg)",687.1%
same,MONO % increase,"SD rats; females, high (100 mg/kg)",290.3%
same,#MONO increase,"SD rats; females, low (30 mg/kg)",187.7%
same,MONO % increase,"SD rats; females, low (30 mg/kg)",63.6%
same,#MONO increase,"SD rats; females, medium (60 mg/kg)",237.0%
same,#NEU increase,"SD rats; females, medium (60 mg/kg)",251.8%
same,MONO % increase,"SD rats; females, medium (60 mg/kg)",100.6%
same,ALB reduction vs. control group,"SD rats; females, ≥100 mg/kg","females: at dose ≥100 mg/kg, ALB (↓28.5%)"
same,GLO increase vs. control group,"SD rats; females, ≥100 mg/kg",GLO (: ↑ 61.3%) was significantly increased
same,#MONO increase vs. control group,"SD rats; males, high (100 mg/kg)",313.0%
same,#MONO increase vs. control group,"SD rats; males, low (30 mg/kg)","#MONO increased (low: ↑ 154.4%,"
same,#MONO increase vs. control group,"SD rats; males, medium (60 mg/kg)",215.8%
same,#EOS increase vs. control group,"SD rats; males, ≥100 mg/kg",816.7%
same,MONO % increase vs. control group,"SD rats; males, ≥100 mg/kg",160.3%
same,body weight gain vs. control group,"SD rats; ≥30 mg/kg, males and females",low body weight gain
same,Cmax,[1]; [2],17500 ng/mL
same,AUC(0-t),[1]; [2],248 µg·h/mL
same,Cmax,[1]; [3],13200 ng/mL
same,AUC(0-t),[1]; [3],202 µg·h/mL
same,Cmax,[1]; [4],21400 ng/mL
same,AUC(0-t),[1]; [4],360 µg·h/mL
same,Cmax,[1]; [5],22400 ng/mL
same,AUC(0-t),[1]; [5],324 µg·h/mL
same,Cmax,[1]; [6],24000 ng/mL
same,AUC(0-t),[1]; [6],405 µg·h/mL
same,Cmax,[1]; [7],26700 ng/mL
same,AUC(0-t),[1]; [7],439 µg·h/mL
same,rebound of body weight after drug withdrawal,mouse NASH model; control compound combined with semaglutide,neither the control compound combined with semaglutide nor the groups of low/high dose semaglutide alone inhibited the rebound of body weight
